# Experimental data published in the supplement of paper PMC10307832.
# Key:
# Assay in all cases: relative viability (nuclei count vs DMSO), 5 days (fraction); higher = more cells survive
# Apatinib + Foretinib = compound: N#CC1(c2ccc(NC(=O)c3cccnc3NCc3ccncc3)cc2)CCCC1 [Apatinib] + COc1cc2c(Oc3ccc(NC(=O)C4(C(=O)Nc5ccc(F)cc5)CC4)cc3F)ccnc2cc1OCCCN1CCOCC1 [Foretinib] (partner 0.25 µM)
# In short: (§1)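 Each reported value is a median over duplicate plates. It expresses relative viability: treated-well nuclei count divided by vehicle-well nuclei count. Lung cancer cell lines in 1536-well plates were dosed by pin tool a day after seeding, alone with one drug or with a fixed anchor-drug dose plus five library-drug doses (not always all listed) in √10 steps, and nuclei were counted after 5 days.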
# Metformin + Pemetrexed = compound: CN(C)C(=N)NC(=N)N [Metformin] + Nc1nc2[nH]cc(CCc3ccc(C(=O)N[C@@H](CCC(=O)O)C(=O)O)cc3)c2c(=O)[nH]1 [Pemetrexed] (partner 0.2 µM)
# In short: as §1
# Apatinib + Pemetrexed = compound: N#CC1(c2ccc(NC(=O)c3cccnc3NCc3ccncc3)cc2)CCCC1 [Apatinib] + Nc1nc2[nH]cc(CCc3ccc(C(=O)N[C@@H](CCC(=O)O)C(=O)O)cc3)c2c(=O)[nH]1 [Pemetrexed] (partner 0.2 µM)
# In short: as §1
# Apatinib + Trametinib = compound: N#CC1(c2ccc(NC(=O)c3cccnc3NCc3ccncc3)cc2)CCCC1 [Apatinib] + CC(=O)Nc1cccc(-n2c(=O)n(C3CC3)c(=O)c3c(Nc4ccc(I)cc4F)n(C)c(=O)c(C)c32)c1 [Trametinib] (partner 0.02 µM)
# In short: as §1
cell line,measurement,setting,value
NCI-H1623,relative viability,Apatinib + Foretinib; first compound 0.08 µM,0.912
same,relative viability,Apatinib + Foretinib; first compound 0.253 µM,0.826
same,relative viability,Apatinib + Foretinib; first compound 0.8 µM,0.844
same,relative viability,Apatinib + Foretinib; first compound 2.53 µM,0.802
same,relative viability,Apatinib + Foretinib; first compound 8 µM,0.777
HCC-15,relative viability,Apatinib + Foretinib; first compound 0.08 µM,1.1
same,relative viability,Apatinib + Foretinib; first compound 0.253 µM,0.866
same,relative viability,Apatinib + Foretinib; first compound 0.8 µM,1
same,relative viability,Apatinib + Foretinib; first compound 2.53 µM,0.999
same,relative viability,Apatinib + Foretinib; first compound 8 µM,0.834
same,relative viability,Metformin + Pemetrexed; first compound 10 µM,0.233
same,relative viability,Metformin + Pemetrexed; first compound 31.62 µM,0.21
same,relative viability,Metformin + Pemetrexed; first compound 100 µM,0.207
same,relative viability,Metformin + Pemetrexed; first compound 316.23 µM,0.228
same,relative viability,Metformin + Pemetrexed; first compound 1000 µM,0.22
same,relative viability,Apatinib + Pemetrexed; first compound 0.08 µM,0.245
same,relative viability,Apatinib + Pemetrexed; first compound 0.253 µM,0.225
same,relative viability,Apatinib + Pemetrexed; first compound 0.8 µM,0.217
same,relative viability,Apatinib + Pemetrexed; first compound 2.53 µM,0.192
same,relative viability,Apatinib + Pemetrexed; first compound 8 µM,0.167
same,relative viability,Apatinib + Trametinib; first compound 0.08 µM,0.393
same,relative viability,Apatinib + Trametinib; first compound 0.253 µM,0.295
same,relative viability,Apatinib + Trametinib; first compound 0.8 µM,0.327
same,relative viability,Apatinib + Trametinib; first compound 2.53 µM,0.367
same,relative viability,Apatinib + Trametinib; first compound 8 µM,0.308
NCI-H441,relative viability,Apatinib + Foretinib; first compound 0.08 µM,0.872
same,relative viability,Apatinib + Foretinib; first compound 0.253 µM,1.14
same,relative viability,Apatinib + Foretinib; first compound 0.8 µM,0.79
same,relative viability,Apatinib + Foretinib; first compound 2.53 µM,0.904
same,relative viability,Apatinib + Foretinib; first compound 8 µM,0.732
same,relative viability,Metformin + Pemetrexed; first compound 31.62 µM,0.255
same,relative viability,Metformin + Pemetrexed; first compound 100 µM,0.292
same,relative viability,Metformin + Pemetrexed; first compound 316.23 µM,0.266
same,relative viability,Metformin + Pemetrexed; first compound 1000 µM,0.264
same,relative viability,Apatinib + Pemetrexed; first compound 0.08 µM,0.302
same,relative viability,Apatinib + Pemetrexed; first compound 0.253 µM,0.274
same,relative viability,Apatinib + Pemetrexed; first compound 0.8 µM,0.261
same,relative viability,Apatinib + Pemetrexed; first compound 2.53 µM,0.205
same,relative viability,Apatinib + Pemetrexed; first compound 8 µM,0.192
same,relative viability,Apatinib + Trametinib; first compound 0.08 µM,0.52
same,relative viability,Apatinib + Trametinib; first compound 0.253 µM,0.46
same,relative viability,Apatinib + Trametinib; first compound 0.8 µM,0.434
same,relative viability,Apatinib + Trametinib; first compound 2.53 µM,0.442
same,relative viability,Apatinib + Trametinib; first compound 8 µM,0.503
NCI-H1993,relative viability,Apatinib + Foretinib; first compound 0.08 µM,0.85
same,relative viability,Apatinib + Foretinib; first compound 0.253 µM,0.766
same,relative viability,Apatinib + Foretinib; first compound 0.8 µM,0.808
same,relative viability,Apatinib + Foretinib; first compound 2.53 µM,0.702
same,relative viability,Apatinib + Foretinib; first compound 8 µM,0.687
same,relative viability,Metformin + Pemetrexed; first compound 10 µM,0.521
same,relative viability,Metformin + Pemetrexed; first compound 31.62 µM,0.507
same,relative viability,Metformin + Pemetrexed; first compound 100 µM,0.588
same,relative viability,Metformin + Pemetrexed; first compound 316.23 µM,0.558
same,relative viability,Metformin + Pemetrexed; first compound 1000 µM,0.633
same,relative viability,Apatinib + Pemetrexed; first compound 0.08 µM,0.593
same,relative viability,Apatinib + Pemetrexed; first compound 0.253 µM,0.566
same,relative viability,Apatinib + Pemetrexed; first compound 0.8 µM,0.605
same,relative viability,Apatinib + Pemetrexed; first compound 2.53 µM,0.549
same,relative viability,Apatinib + Pemetrexed; first compound 8 µM,0.549
same,relative viability,Apatinib + Trametinib; first compound 0.08 µM,0.436
same,relative viability,Apatinib + Trametinib; first compound 0.253 µM,0.579
same,relative viability,Apatinib + Trametinib; first compound 0.8 µM,0.538
same,relative viability,Apatinib + Trametinib; first compound 2.53 µM,0.493
same,relative viability,Apatinib + Trametinib; first compound 8 µM,0.461
NCI-H1915,relative viability,Apatinib + Foretinib; first compound 0.08 µM,1.18
same,relative viability,Apatinib + Foretinib; first compound 0.253 µM,1.08
same,relative viability,Apatinib + Foretinib; first compound 0.8 µM,1.03
same,relative viability,Apatinib + Foretinib; first compound 2.53 µM,0.943
same,relative viability,Apatinib + Foretinib; first compound 8 µM,0.836
same,relative viability,Metformin + Pemetrexed; first compound 31.62 µM,0.438
same,relative viability,Metformin + Pemetrexed; first compound 100 µM,0.404
same,relative viability,Metformin + Pemetrexed; first compound 316.23 µM,0.379
same,relative viability,Metformin + Pemetrexed; first compound 1000 µM,0.435
same,relative viability,Apatinib + Pemetrexed; first compound 0.08 µM,0.503
same,relative viability,Apatinib + Pemetrexed; first compound 0.253 µM,0.493
same,relative viability,Apatinib + Pemetrexed; first compound 0.8 µM,0.512
same,relative viability,Apatinib + Pemetrexed; first compound 2.53 µM,0.408
same,relative viability,Apatinib + Pemetrexed; first compound 8 µM,0.392
same,relative viability,Apatinib + Trametinib; first compound 0.08 µM,0.321
same,relative viability,Apatinib + Trametinib; first compound 0.253 µM,0.315
same,relative viability,Apatinib + Trametinib; first compound 0.8 µM,0.311
same,relative viability,Apatinib + Trametinib; first compound 2.53 µM,0.302
same,relative viability,Apatinib + Trametinib; first compound 8 µM,0.286
ABC-1,relative viability,Apatinib + Foretinib; first compound 0.253 µM,1.27
same,relative viability,Apatinib + Foretinib; first compound 0.8 µM,0.961
same,relative viability,Apatinib + Foretinib; first compound 2.53 µM,1.1
same,relative viability,Apatinib + Foretinib; first compound 8 µM,1.02
NCI-H2087,relative viability,Apatinib + Foretinib; first compound 0.08 µM,1.22
same,relative viability,Apatinib + Foretinib; first compound 0.253 µM,1.13
same,relative viability,Apatinib + Foretinib; first compound 0.8 µM,0.91
same,relative viability,Apatinib + Foretinib; first compound 2.53 µM,1.02
same,relative viability,Apatinib + Foretinib; first compound 8 µM,0.899
same,relative viability,Metformin + Pemetrexed; first compound 10 µM,0.622
same,relative viability,Metformin + Pemetrexed; first compound 31.62 µM,0.702
same,relative viability,Metformin + Pemetrexed; first compound 100 µM,0.615
same,relative viability,Metformin + Pemetrexed; first compound 316.23 µM,0.536
same,relative viability,Metformin + Pemetrexed; first compound 1000 µM,0.614
same,relative viability,Apatinib + Pemetrexed; first compound 0.08 µM,0.657
same,relative viability,Apatinib + Pemetrexed; first compound 0.253 µM,0.682
same,relative viability,Apatinib + Pemetrexed; first compound 0.8 µM,0.65
same,relative viability,Apatinib + Pemetrexed; first compound 2.53 µM,0.619
same,relative viability,Apatinib + Pemetrexed; first compound 8 µM,0.758
same,relative viability,Apatinib + Trametinib; first compound 0.08 µM,0.188
same,relative viability,Apatinib + Trametinib; first compound 0.253 µM,0.169
same,relative viability,Apatinib + Trametinib; first compound 0.8 µM,0.205
same,relative viability,Apatinib + Trametinib; first compound 2.53 µM,0.195
same,relative viability,Apatinib + Trametinib; first compound 8 µM,0.191
NCI-H1755,relative viability,Apatinib + Foretinib; first compound 0.08 µM,0.984
same,relative viability,Apatinib + Foretinib; first compound 0.253 µM,0.954
same,relative viability,Apatinib + Foretinib; first compound 0.8 µM,0.912
same,relative viability,Apatinib + Foretinib; first compound 2.53 µM,0.91
same,relative viability,Apatinib + Foretinib; first compound 8 µM,0.806
same,relative viability,Metformin + Pemetrexed; first compound 10 µM,0.416
same,relative viability,Metformin + Pemetrexed; first compound 31.62 µM,0.443
same,relative viability,Metformin + Pemetrexed; first compound 100 µM,0.392
same,relative viability,Metformin + Pemetrexed; first compound 316.23 µM,0.34
same,relative viability,Metformin + Pemetrexed; first compound 1000 µM,0.376
same,relative viability,Apatinib + Pemetrexed; first compound 0.08 µM,0.423
same,relative viability,Apatinib + Pemetrexed; first compound 0.253 µM,0.441
same,relative viability,Apatinib + Pemetrexed; first compound 0.8 µM,0.402
same,relative viability,Apatinib + Pemetrexed; first compound 2.53 µM,0.329
same,relative viability,Apatinib + Pemetrexed; first compound 8 µM,0.364
same,relative viability,Apatinib + Trametinib; first compound 0.08 µM,0.826
same,relative viability,Apatinib + Trametinib; first compound 0.253 µM,0.746
same,relative viability,Apatinib + Trametinib; first compound 0.8 µM,0.725
same,relative viability,Apatinib + Trametinib; first compound 2.53 µM,0.825
same,relative viability,Apatinib + Trametinib; first compound 8 µM,0.652
HCC-366,relative viability,Apatinib + Foretinib; first compound 0.08 µM,0.977
same,relative viability,Apatinib + Foretinib; first compound 0.253 µM,0.904
same,relative viability,Apatinib + Foretinib; first compound 0.8 µM,0.966
same,relative viability,Apatinib + Foretinib; first compound 2.53 µM,0.93
same,relative viability,Apatinib + Foretinib; first compound 8 µM,0.963
same,relative viability,Metformin + Pemetrexed; first compound 10 µM,0.13
same,relative viability,Metformin + Pemetrexed; first compound 31.62 µM,0.21
same,relative viability,Metformin + Pemetrexed; first compound 100 µM,0.139
same,relative viability,Metformin + Pemetrexed; first compound 316.23 µM,0.162
same,relative viability,Metformin + Pemetrexed; first compound 1000 µM,0.158
same,relative viability,Apatinib + Pemetrexed; first compound 0.08 µM,0.192
same,relative viability,Apatinib + Pemetrexed; first compound 0.253 µM,0.159
same,relative viability,Apatinib + Pemetrexed; first compound 0.8 µM,0.129
same,relative viability,Apatinib + Pemetrexed; first compound 2.53 µM,0.121
same,relative viability,Apatinib + Pemetrexed; first compound 8 µM,0.0888
same,relative viability,Apatinib + Trametinib; first compound 0.08 µM,0.336
same,relative viability,Apatinib + Trametinib; first compound 0.253 µM,0.393
same,relative viability,Apatinib + Trametinib; first compound 0.8 µM,0.369
same,relative viability,Apatinib + Trametinib; first compound 2.53 µM,0.314
same,relative viability,Apatinib + Trametinib; first compound 8 µM,0.273
NCI-H2170,relative viability,Apatinib + Foretinib; first compound 0.08 µM,1.04
same,relative viability,Apatinib + Foretinib; first compound 0.253 µM,0.958
same,relative viability,Apatinib + Foretinib; first compound 0.8 µM,0.978
same,relative viability,Apatinib + Foretinib; first compound 2.53 µM,0.983
same,relative viability,Apatinib + Foretinib; first compound 8 µM,0.846
same,relative viability,Metformin + Pemetrexed; first compound 10 µM,0.238
same,relative viability,Metformin + Pemetrexed; first compound 31.62 µM,0.281
same,relative viability,Metformin + Pemetrexed; first compound 100 µM,0.264
same,relative viability,Metformin + Pemetrexed; first compound 316.23 µM,0.266
same,relative viability,Metformin + Pemetrexed; first compound 1000 µM,0.267
same,relative viability,Apatinib + Pemetrexed; first compound 0.08 µM,0.288
same,relative viability,Apatinib + Pemetrexed; first compound 0.253 µM,0.275
same,relative viability,Apatinib + Pemetrexed; first compound 0.8 µM,0.262
same,relative viability,Apatinib + Pemetrexed; first compound 2.53 µM,0.224
same,relative viability,Apatinib + Pemetrexed; first compound 8 µM,0.251
same,relative viability,Apatinib + Trametinib; first compound 0.08 µM,0.942
same,relative viability,Apatinib + Trametinib; first compound 0.253 µM,0.881
same,relative viability,Apatinib + Trametinib; first compound 0.8 µM,0.857
same,relative viability,Apatinib + Trametinib; first compound 2.53 µM,0.822
same,relative viability,Apatinib + Trametinib; first compound 8 µM,0.737
